Assay results published in the supplement of paper PMC8617591.

Legend:
[1] = tested on: Mycobacterium tuberculosis Erdman (autoluminescent); test: Einf, fitted maximum growth inhibition of combination (fraction); higher = stronger maximal inhibition
Experimental: (§1)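 DiaMOND equipotent two-drug combination dose responses against autoluminescent M. tuberculosis Erdman in 8 in vitro models. Read-out is OD600, or luminescence for the intracellular and dormancy models, normalised to untreated wells. Hill-fit Einf, AUC25 and GRinf are potency metrics; FIC50 and FIC90 are Loewe-additivity fractional inhibitory concentrations, given as log2 (negative = synergy). Replicates are averaged.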

[2] = tested on: Mycobacterium tuberculosis Erdman (autoluminescent); test: AUC25, normalised area under dose response up to IC25 (fraction (0-1)); higher = more potent at low dose
Experimental: as §1

[3] = tested on: Mycobacterium tuberculosis Erdman (autoluminescent); test: FIC90 (Loewe) at 90% inhibition (log2); higher = more antagonistic
Experimental: as §1

[4] = tested on: Mycobacterium tuberculosis Erdman (autoluminescent); test: GRinf, maximum normalised growth rate inhibition (unitless (-1 to 1)); higher = less effect (negative = killing)
Experimental: as §1

[5] = tested on: Mycobacterium tuberculosis Erdman (autoluminescent); test: FIC50 (Loewe) at 50% inhibition (log2); higher = more antagonistic
Experimental: as §1

COc1nc2ccc(Br)cc2cc1[C@@H](c1ccccc1)[C@@](O)(CCN(C)C)c1cccc2ccccc12 [bedaquiline] + CO[C@H]1/C=C/O[C@@]2(C)Oc3c(C)c(O)c4c(O)c(c(/C=N/N5CCN(C6CCCC6)CC5)c(O)c4c3C2=O)NC(=O)/C(C)=C\C=C\[C@H](C)[C@H](O)[C@@H](C)[C@@H](O)[C@@H](C)[C@H](OC(C)=O)[C@@H]1C [rifapentine]
Conditions	AUC25, [2]	Einf, [1]	FIC50, [5]	FIC90, [3]	GRinf, [4]
in vitro model: acidic pH 5.7, time point: constant (~7 days, model-specific)	0.0995	0.969	0.322	0.172	-0.693
in vitro model: acidic pH 5.7, time point: terminal (~4-5 doublings, model-specific)	0.0881	0.998	0.392	0.396	-0.38
in vitro model: intracellular J774, time point: constant = terminal	–	0.943	–	0.658	-0.214

Conditions	AUC25, [2]	Einf, [1]	FIC50, [5]	FIC90, [3]	GRinf, [4]
in vitro model: butyrate, time point: constant (~7 days, model-specific)	0.0889	0.933	0.485	0.365	-0.0857
in vitro model: butyrate, time point: terminal (~4-5 doublings, model-specific)	0.0717	0.976	0.482	0.362	-0.102
in vitro model: cholesterol 0.05 mM, time point: constant (~7 days, model-specific)	0.119	0.787	0.249	–	-0.201
in vitro model: cholesterol 0.05 mM, time point: terminal (~4-5 doublings, model-specific)	0.0716	0.93	0.341	0.609	-0.223
in vitro model: cholesterol-high 0.2 mM, time point: constant (~7 days, model-specific)	0.0555	0.969	0.211	-0.159	-0.659
in vitro model: cholesterol-high 0.2 mM, time point: terminal (~4-5 doublings, model-specific)	0.0435	1	0.367	0.259	-0.615
in vitro model: dormancy (butyrate + nitrate, low O2), time point: constant (~7 days, model-specific)	0.072	0.941	0.549	1	0.16
in vitro model: dormancy (butyrate + nitrate, low O2), time point: terminal (~4-5 doublings, model-specific)	0.0609	0.981	0.481	0.635	-0.111
in vitro model: standard 7H9 glycerol, time point: constant = terminal	0.0637	0.949	0.236	0.112	-0.0779
in vitro model: valerate, time point: constant (~7 days, model-specific)	0.0652	0.899	0.621	–	-0.0573
in vitro model: valerate, time point: terminal (~4-5 doublings, model-specific)	0.0336	0.955	0.678	0.464	-0.0667

COc1nc2ccc(Br)cc2cc1[C@@H](c1ccccc1)[C@@](O)(CCN(C)C)c1cccc2ccccc12 [bedaquiline] + CO[C@H]1/C=C/O[C@@]2(C)Oc3c(C)c(O)c4c(O)c(c(/C=N/N5CCN(C)CC5)c(O)c4c3C2=O)NC(=O)/C(C)=C\C=C\[C@H](C)[C@H](O)[C@@H](C)[C@@H](O)[C@@H](C)[C@H](OC(C)=O)[C@@H]1C [rifampicin]
Conditions	AUC25, [2]	Einf, [1]	FIC50, [5]	FIC90, [3]	GRinf, [4]
in vitro model: acidic pH 5.7, time point: constant (~7 days, model-specific)	0.11	0.966	0.235	-0.844	-0.709
in vitro model: acidic pH 5.7, time point: terminal (~4-5 doublings, model-specific)	0.0796	0.995	0.0554	-0.216	-0.353
in vitro model: intracellular J774, time point: constant = terminal	–	0.963	–	0.648	-0.255

Conditions	AUC25, [2]	Einf, [1]	FIC50, [5]	FIC90, [3]	GRinf, [4]
in vitro model: butyrate, time point: constant (~7 days, model-specific)	0.112	0.958	0.393	0.174	-0.181
in vitro model: butyrate, time point: terminal (~4-5 doublings, model-specific)	0.0949	0.988	0.398	0.429	-0.18
in vitro model: cholesterol 0.05 mM, time point: constant (~7 days, model-specific)	0.104	0.722	0.0154	–	-0.0966
in vitro model: cholesterol 0.05 mM, time point: terminal (~4-5 doublings, model-specific)	0.0851	0.919	0.343	-0.364	-0.181
in vitro model: cholesterol-high 0.2 mM, time point: constant (~7 days, model-specific)	0.0637	0.982	0.194	-0.00523	-0.639
in vitro model: cholesterol-high 0.2 mM, time point: terminal (~4-5 doublings, model-specific)	0.058	1	0.318	0.223	-0.64
in vitro model: dormancy (butyrate + nitrate, low O2), time point: constant (~7 days, model-specific)	0.0984	0.921	0.234	0.896	0.149
in vitro model: dormancy (butyrate + nitrate, low O2), time point: terminal (~4-5 doublings, model-specific)	0.0644	0.985	0.332	0.603	-0.312
in vitro model: standard 7H9 glycerol, time point: constant = terminal	0.0718	0.93	0.22	0.326	-0.0375
in vitro model: valerate, time point: constant (~7 days, model-specific)	0.0727	0.914	0.714	–	-0.108
in vitro model: valerate, time point: terminal (~4-5 doublings, model-specific)	0.0313	0.956	0.779	0.467	-0.0734

COc1nc2ccc(Br)cc2cc1[C@@H](c1ccccc1)[C@@](O)(CCN(C)C)c1cccc2ccccc12 [bedaquiline] + COc1c(N2C[C@@H]3CCCN[C@@H]3C2)c(F)cc2c(=O)c(C(=O)O)cn(C3CC3)c12 [moxifloxacin]
Conditions	AUC25, [2]	Einf, [1]	FIC50, [5]	FIC90, [3]	GRinf, [4]
in vitro model: acidic pH 5.7, time point: constant (~7 days, model-specific)	0.111	0.834	0.282	–	-0.5
in vitro model: acidic pH 5.7, time point: terminal (~4-5 doublings, model-specific)	0.0707	0.974	0.69	0.144	-0.382
in vitro model: intracellular J774, time point: constant = terminal	–	0.975	–	0.878	-0.309

Conditions	AUC25, [2]	Einf, [1]	FIC50, [5]	FIC90, [3]	GRinf, [4]
in vitro model: butyrate, time point: constant (~7 days, model-specific)	0.092	0.966	0.816	0.849	-0.175
in vitro model: butyrate, time point: terminal (~4-5 doublings, model-specific)	0.059	0.981	0.823	0.833	-0.131
in vitro model: cholesterol 0.05 mM, time point: constant (~7 days, model-specific)	0.112	0.777	0.158	–	-0.237
in vitro model: cholesterol 0.05 mM, time point: terminal (~4-5 doublings, model-specific)	0.0888	0.951	0.528	0.279	-0.314
in vitro model: cholesterol-high 0.2 mM, time point: constant (~7 days, model-specific)	0.0699	0.968	0.333	0.255	-0.699
in vitro model: cholesterol-high 0.2 mM, time point: terminal (~4-5 doublings, model-specific)	0.0477	1	0.532	0.271	-0.644
in vitro model: dormancy (butyrate + nitrate, low O2), time point: constant (~7 days, model-specific)	0.0664	0.921	0.814	0.437	0.176
in vitro model: dormancy (butyrate + nitrate, low O2), time point: terminal (~4-5 doublings, model-specific)	0.0916	0.982	0.702	1.39	-0.143
in vitro model: standard 7H9 glycerol, time point: constant = terminal	0.105	0.993	0.0351	0.704	-0.102
in vitro model: valerate, time point: constant (~7 days, model-specific)	0.0901	0.911	0.469	–	-0.123
in vitro model: valerate, time point: terminal (~4-5 doublings, model-specific)	0.0647	0.966	0.485	0.622	-0.0943
